Results published in patent US9127035B2, “Compounds for use in the treatment of bacterial infection” (THE ROYAL INSTITUTION FOR THE ADVANCEMENT OF …, priority 2011, dated 2015).
Where two headings read alike, the source gives them in different places.

Tests used:
[1] = system: Enterococcus faecium ATCC 19434 which expresses AAC(6′)-li naturally; assay: Checkerboard assay, potentiation of kanamycin A on a resistant strain; type: cell-based; conditions: for effect on the MIC50 of kanamycin A: compound 512 μg/ml combined with kanamycin A, compared to kanamycin A alone
Protocol: General biological methods. Enterococcus faecium ATCC 19434, Staphylococcus aureus ATCC 29213 and 43300, Acinetobacter baumannii ATCC 19606, Pseudomonas aeruginosa ATCC 27853, Klebsiella penumoniae ATCC 13883, and Escherichia coli ATCC 25922 and 11775 were all purchased from Cedarlane (Burlington, ON). E. faecium was grown in Difco brain heart infusion media (BD, Mississauga, ON), S. aureus and P. aeruginosa were grown in Trypticase soy media (BD, Mississauga, ON), and E. coli, A. baumannii, and K. pneumoniae were grown in Nutrient media (BD, Mississauga, ON). Antibacterial tests were performed using Falcon™ Black with Clear Bottom 96-well Microtest™ Optilux plates (BD, Mississauga, ON).
(§1) Checkerboard assay to determine the synergistic activity of compounds 3a-f with kanamycin A or tobramycin on a resistant strain. A two dimensional checkerboard MIC assay was carried out as previously described [Gao F, Yan X, Shakya T, Baettig O M, Ait-Mohand-Brunet S, Berghuis A M, Wright G D, Auclair K; J Med Chem, 2006, 49:5273-5281] to observe for the potentiation activity of compounds 3a-f towards the antibacterial activity of kanamycin A or tobramycin against Enterococcus faecium ATCC 19434 which expresses AAC(6′)-li naturally, or an E. coli strain engineered to express AAC(6)-li. Compounds 3a-f were diluted by 2-fold sequential dilutions to create a gradient from 32 to 512 μg/mL while the concentrations used for kanamycin A or tobramycin were 0, 10, 20, 40, 50, 100, 150, 200, 250, and 300 μg/mL. The cultures were grown at 37° C. for 16 h in 96-well plates, and then monitored for optical density at 600 nm using a Spectramax 190 microplate reader (Molecular Devices, Sunnyvale, Calif.). Data was normalized against a positive growth control and reported as a percentage of bacterial cell growth. All data points are from quadruplicate experiments.

[2] = biological target: T1, E. coli pantothenate kinase (PanK or coaA enzyme) (Escherichia coli, UniProt P0A6I3); assay: PanK enzyme assay (Michaelis-Menten kinetics); type: biochemical; conditions: transformation by PanK; 25° C., Tris-HCl pH 7.6; triplicate
T1 construct: made in house
T1 sequence (P0A6I3 1-316): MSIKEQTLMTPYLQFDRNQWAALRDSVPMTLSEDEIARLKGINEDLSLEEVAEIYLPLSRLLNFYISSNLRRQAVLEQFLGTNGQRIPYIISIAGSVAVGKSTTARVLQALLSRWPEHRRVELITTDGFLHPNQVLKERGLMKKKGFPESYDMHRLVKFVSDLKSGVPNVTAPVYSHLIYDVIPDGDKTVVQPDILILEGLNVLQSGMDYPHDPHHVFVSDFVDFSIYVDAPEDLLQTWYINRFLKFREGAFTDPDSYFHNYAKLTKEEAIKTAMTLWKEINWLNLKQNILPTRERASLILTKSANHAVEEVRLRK
Protocol: PanK enzyme assay. The E. coli pantothenate kinase (PanK or coaA enzyme) was expressed and purified as previously described. Enzyme activity was measured as described in the literature [Strauss E, Begley T P J Biol Chem, 2002, 277:48205-48209]. This assay couples the production of ADP to the consumption of NADH through the activity of pyruvate kinase and lactic dehydrogenase. The decrease of NADH concentration was monitored at 340 nm. Reactions were performed at 25° C. in an Agilent 8453 UV-Vis spectrophotometer coupled to an Agilent 89090A Peltier temperature controller. Kinetic parameters were determined by fitting the rate data into the Michaelis-Menten equation using Prism 4.0 (GraphPad). Each reaction mixture (500 μL) contained ATP (1.5 mM), NADH (0.3 mM), phosphoenolpyruvate (0.5 mM), MgCl2 (10 mM), KCl (20 mM), pyruvate kinase (5 units), lactic dehydrogenase (5 units), and PanK (5 μg, 278 nM) in Tris-HCl buffer (50 mM, pH 7.6). The reaction was initiated by addition of the desired substrate (10-160 μM). All data points are from triplicate experiments.

[3] = system: PanK, PPAT and DPCK; assay: Biosynthetic in vitro assay with a mixture of PanK, PPAT and DPCK enzymes; type: biochemical; conditions: substrate 5.0 mM, 3 hours at room temperature; HPLC, approximate ± 5%, duplicate
Protocol: Biosynthetic in vitro assay with a mixture of PanK, PPAT and DPCK enzymes. The E. coli enzymes pantothenate kinase (PanK or coaA enzyme), phosphopantetheine adenylyltransferase (PPAT or coaD enzyme), and dephosphocoenzyme A kinase (DPCK or coaE enzyme) were expressed and purified as previously described [Geerlof A, Lewendon A, Shaw W V J Biol Chem 1999, 274:27105-27111]. Each reaction mixture (500 μL) contained ATP (5.0 mM), KCl (20 mM), MgCl2 (10 mM), DTT (2.0 mM), PanK (5 μg, 278 nM), PPAT (5 μg, 500 nM), DPCK (5 μg, 454 nM) in Tris-Cl Buffer (50 mM, pH 7.6). The reaction was initiated with the addition of pantetheine (5.0 mM) for comparison, water as a negative control, or compounds 3a-e (5.0 mM). Reactions were incubated for 3 hours at room temperature and then stopped by heating the mixture to 95° C. for 5 min. The precipitated protein was removed by centrifugation (13,000 rpm for 5 min) and the supernatant was analyzed by LC/MS. Reversed-phase analytical HPLC was performed with an analytical 4.60×250 mm, SYNERGI 4p Hydro-RP 80A (Phenomenex, Torrance, Calif.) column coupled to an Agilent 6120 Quadrupole LC/MS system for ESI-MS analysis. The HPLC conditions had the sample eluted at a flow rate of 0.5 mL min^−1 using a combination of mobile phase A (H2O) and mobile phase B (acetonitrile), Elution conditions are as follows: isocratic 1% phase B from 0-3 min; followed by the following linear gradients of phase B: 1-10% from 3-5 min; 10-15% from 5-10 min; 15-30% from 10-13 min; an finally isocratic phase B at 30% from 13-26 min. The detector was set to 214 nm. These experiments were run in duplicate.

[4] = system: E. coli (BL21) harbouring AAC(6′)-li resistance gene in pET-22b(+) vector; assay: Checkerboard assay, potentiation of tobramycin on engineered E. coli; type: cell-based; conditions: tobramycin combined with compound; E. coli engineered to express AAC(6′)-li
Protocol: as §1

[5] = biological target: T1, E. coli pantothenate kinase (PanK or coaA enzyme); conditions: natural substrates of PanK; literature values (footnotes a, b); cited from earlier work

Compound | effect on the MIC50 of kanamycin A [1] | Compounds detected by LC-MS: 6a-e, relative percentage [3] | Compounds detected by LC-MS: 7a-e, relative percentage [3] | Compounds detected by LC-MS: 2a-e, relative percentage [3] | other results
CC(C)(CO)[C@@H](O)C(=O)NCCC(=O)NCCSCC(=O)NC[C@H]1O[C@H](O[C@H]2[C@H](O)[C@@H](O)[C@H](N)C[C@@H]2N)[C@H](N)[C@@H](O)[C@@H]1O [Compound 3a, Neamine 6′-N—(R)-(3-((2-((2-amino-2-oxoethyl)thio)ethyl)amino)-3-oxopropyl)-2,4-dihydroxyl-3,3-dimethylbutanamide] | negligible effect | 5% | 25% |  | Km [2]: ≥ 500 µM; Compounds detected by LC-MS: 3a-e (starting material), relative percentage [3]: 70%
CC(C)(CO)[C@@H](O)C(=O)NCCC(=O)NCCSCCC(=O)NC[C@H]1O[C@H](O[C@H]2[C@H](O)[C@@H](O)[C@H](N)C[C@@H]2N)[C@H](N)[C@@H](O)[C@@H]1O [Compound 3b, Neamine 6′-N—(R)-(3-((2-((2-amino-2-oxopropyl)thio)ethyl)amino)-3-oxopropyl)-2,4-dihydroxyl-3,3-dimethylbutanamide] |  | 20% | 70% | 10% | 
CC(C)(CO)[C@@H](O)C(=O)NCCC(=O)NCCSCCCC(=O)NC[C@H]1O[C@H](O[C@H]2[C@H](O)[C@@H](O)[C@H](N)C[C@@H]2N)[C@H](N)[C@@H](O)[C@@H]1O [Compound 3c, Neamine 6′-N—(R)-(3-((2-((2-amino-2-oxobutyl)thio)ethyl)amino)-3-oxopropyl)-2,4-dihydroxyl-3,3-dimethylbutanamide] |  | 5% | 40% | 55% | dose dependence of the potentiation of kanamycin A ([1]; compound 32 to 512 μg/mL with kanamycin A): dose-dependent effect
CC(C)(CO)[C@@H](O)C(=O)NCCC(=O)NCCSCCCCC(=O)NC[C@H]1O[C@H](O[C@H]2[C@H](O)[C@@H](O)[C@H](N)C[C@@H]2N)[C@H](N)[C@@H](O)[C@@H]1O [Compound 3d, Neamine 6′-N—(R)-(3-((2-((2-amino-2-oxopentyl)thio)ethyl)amino)-3-oxopropyl)-2,4-dihydroxyl-3,3-dimethylbutanamide] | drop by half |  | 10% | 90% | reduction in the MIC of tobramycin [4]: 10 fold
CC(C)(CO)[C@@H](O)C(=O)NCCC(=O)NCCSCCCCCC(=O)NC[C@H]1O[C@H](O[C@H]2[C@H](O)[C@@H](O)[C@H](N)C[C@@H]2N)[C@H](N)[C@@H](O)[C@@H]1O [Compound 3e, Neamine 6′-N—(R)-(3-((2-((2-amino-2-oxohexyl)thio)ethyl)amino)-3-oxopropyl)-2,4-dihydroxyl-3,3-dimethylbutanamide] | drop by half |  | 20% | 80% | 
CC(C)(CO)[C@@H](O)C(=O)NCCC(=O)NCCS [Pantetheine] |  |  |  |  | kcat [5]: 0.32 ± 0.02^b sec^−1
CC(C)(CO)[C@@H](O)C(=O)NCCC(=O)O [Pantothenic acid] |  |  |  |  | Km [5]: 17 ± 2 µM; kcat [5]: 1.07 ± 0.04^a sec^−1
NC[C@H]1O[C@H](O[C@H]2[C@H](O)[C@@H](O[C@H]3O[C@H](CO)[C@@H](O)[C@H](N)[C@H]3O)[C@H](N)C[C@@H]2N)[C@H](O)[C@@H](O)[C@@H]1O [kanamycin A, reference compound] |  |  |  |  | MIC50 of kanamycin A (minimum concentration causing a 50% growth inhibition) ([1]; kanamycin A alone, in the absence of compounds 3a-e): ~125 µg/mL
